Values quoted from earlier work in patent publication US11399559B2, “Nutritional products having improved lipophilic solubility and bioavailability in an easily mixable form” (ABBOTT LABORATORIES, priority 2015, dated 2022).
Read-outs that look alike come from different tables or passages of the source.

Q: What does the source list for `Cc1c(C)c2c(c(C)c1O)CC[C@@](C)(CCC[C@H](C)CCC[C@H](C)CCCC(C)C)O2` [RRR-alpha-tocopherol]?
A: Biological activity relative to all-rac-alpha-tocopherol (accepted nutritional guidelines): 1.36 times; Biological activity relative to all-rac-alpha-tocopherol (recent studies): about 2 times
